Assay results reported in patent US20120029187A1, “HALOALKYLSULFONANILIDE DERIVATIVE” (Nissan Chemical Industries, Ltd., priority 2009, published 2012).

Key:
Format in all cases: in vivo
[1] = test system: barnyardgrass; experiment: Test Example 1: herbicidal effects in preemergence treatment under submerged conditions; settings: dose 2.52 g/a
In short: (§1)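 Flooded-paddy preemergence assay; EC diluted with water, surface-applied at weed seeding; doses g/a; rice transplanted at 2.5 leaves; 0–5 mortality score after 3 weeks.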

[2] = test system: bulrush; experiment: as above; settings: dose 2.52 g/a
In short: as §1

[3] = test system: ducksalad; experiment: as above; settings: dose 2.52 g/a
In short: as §1

[4] = test system: transplanted rice; experiment: Test Example 1: preemergence treatment under submerged conditions, effect on crop; settings: dose 2.52 g/a
In short: as §1

[5] = test system: barnyardgrass; experiment: Test Example 2: herbicidal effects during the vegetation period under submerged conditions; settings: treatment during the vegetation period under submerged conditions; dose 2.52 g/a
In short: (§2)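 Barnyardgrass, bulrush and ducksalad were co-sown in alluvial soil flooded to 4 cm and grown in a greenhouse at 25 to 30° C. At the 1- or 2-leaf stage, water-diluted emulsifiable concentrates went onto the water surface at set doses (g/a). Herbicidal effect was scored three weeks later on a graded scale.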

[6] = test system: bulrush; experiment: as above; settings: treatment during the vegetation period under submerged conditions; dose 2.52 g/a
In short: as §2

[7] = test system: ducksalad; experiment: as above; settings: treatment during the vegetation period under submerged conditions; dose 2.52 g/a
In short: as §2

[8] = test system: Italian ryegrass; experiment: Test Example 3: herbicidal effects in soil treatment; settings: dose 3.2 g/a
In short: (§3)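 Seeds were sown in sterilized diluvial soil and covered with about 1.5 cm of soil. Compounds, formulated as emulsifiable concentrates and diluted with water, were sprayed evenly over the soil surface at set doses in g/a. Herbicidal effect was scored on a rating scale three weeks later.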

[9] = test system: barnyardgrass; experiment: as above; settings: dose 3.2 g/a
In short: as §3

[10] = test system: beadstraw; experiment: as above; settings: dose 3.2 g/a
In short: as §3

[11] = test system: common chickweed; experiment: as above; settings: dose 3.2 g/a
In short: as §3

[12] = test system: common lambsquater; experiment: as above; settings: dose 3.2 g/a
In short: as §3

[13] = test system: common ragweed; experiment: as above; settings: dose 3.2 g/a
In short: as §3

[14] = test system: giant foxtail; experiment: as above; settings: dose 3.2 g/a
In short: as §3

[15] = test system: large crabgrass; experiment: as above; settings: dose 3.2 g/a
In short: as §3

[16] = test system: redroot pigweed; experiment: as above; settings: dose 3.2 g/a
In short: as §3

[17] = test system: velvetleaf; experiment: as above; settings: dose 3.2 g/a
In short: as §3

[18] = test system: water foxtail; experiment: as above; settings: dose 3.2 g/a
In short: as §3

[19] = test system: wild oat; experiment: as above; settings: dose 3.2 g/a
In short: as §3

[20] = test system: Italian ryegrass; experiment: Test Example 4: herbicidal effect in foliage treatment; settings: dose 3.2 g/a, three weeks after application
In short: (§4)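 Weeds and crops sown in sterilized diluvial soil under ~1.5 cm cover and grown in greenhouse at 25 to 30° C. At 14 days, water-diluted emulsifiable concentrate sprayed onto foliage at set doses (g/a); herbicidal effect scored on a rating scale three weeks after application.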

[21] = test system: barnyardgrass; experiment: as above; settings: dose 3.2 g/a, three weeks after application
In short: as §4

[22] = test system: beadstraw; experiment: as above; settings: dose 3.2 g/a, three weeks after application
In short: as §4

[23] = test system: common chickweed; experiment: as above; settings: dose 3.2 g/a, three weeks after application
In short: as §4

[24] = test system: common lambsquater; experiment: as above; settings: dose 3.2 g/a, three weeks after application
In short: as §4

[25] = test system: common ragweed; experiment: as above; settings: dose 3.2 g/a, three weeks after application
In short: as §4

[26] = test system: giant foxtail; experiment: as above; settings: dose 3.2 g/a, three weeks after application
In short: as §4

[27] = test system: large crabgrass; experiment: as above; settings: dose 3.2 g/a, three weeks after application
In short: as §4

[28] = test system: posumbu knotweed; experiment: as above; settings: dose 3.2 g/a, three weeks after application
In short: as §4

[29] = test system: redroot pigweed; experiment: as above; settings: dose 3.2 g/a, three weeks after application
In short: as §4

[30] = test system: velvetleaf; experiment: as above; settings: dose 3.2 g/a, three weeks after application
In short: as §4

[31] = test system: water foxtail; experiment: as above; settings: dose 3.2 g/a, three weeks after application
In short: as §4

[32] = test system: wild oat; experiment: as above; settings: dose 3.2 g/a, three weeks after application
In short: as §4

## COC(=O)N(c1ccccc1CN1COC(C)(C)C(F)C1=O)S(=O)(=O)C(F)(F)F (centres unmarked) [II-33]
[1]
  A: barnyardgrass, herbicidal effect (evaluation scale 0-5): 5 (mortality of 90% or above (nearly complete death))
[2]
  B: bulrush, herbicidal effect (evaluation scale 0-5): 5 (mortality of 90% or above (nearly complete death))
[3]
  C: ducksalad, herbicidal effect (evaluation scale 0-5): 5 (mortality of 90% or above (nearly complete death))
[4]
  a: transplanted rice, effect on crop (evaluation scale 0-5): 0 (mortality of less than 5% (almost ineffective))
[5]
  A: barnyardgrass, herbicidal effect (evaluation scale 0-5): 5 (mortality of 90% or above (nearly complete death))
[6]
  B: bulrush, herbicidal effect (evaluation scale 0-5): 5 (mortality of 90% or above (nearly complete death))
[7]
  C: ducksalad, herbicidal effect (evaluation scale 0-5): 5 (mortality of 90% or above (nearly complete death))
[8]
  H: Italian ryegrass, herbicidal effect (evaluation scale 0-5): 4 (mortality of at least 70% and less than 90%)
[9]
  A: barnyardgrass, herbicidal effect (evaluation scale 0-5): 5 (mortality of 90% or above (nearly complete death))
[10]
  O: beadstraw, herbicidal effect (evaluation scale 0-5): 4 (mortality of at least 70% and less than 90%)
[11]
  N: common chickweed, herbicidal effect (evaluation scale 0-5): 3 (mortality of at least 40% and less than 70%)
[12]
  L: common lambsquater, herbicidal effect (evaluation scale 0-5): 0 (mortality of less than 5% (almost ineffective))
[13]
  J: common ragweed, herbicidal effect (evaluation scale 0-5): 5 (mortality of 90% or above (nearly complete death))
[14]
  E: giant foxtail, herbicidal effect (evaluation scale 0-5): 5 (mortality of 90% or above (nearly complete death))
[15]
  D: large crabgrass, herbicidal effect (evaluation scale 0-5): 5 (mortality of 90% or above (nearly complete death))
[16]
  K: redroot pigweed, herbicidal effect (evaluation scale 0-5): 3 (mortality of at least 40% and less than 70%)
[17]
  I: velvetleaf, herbicidal effect (evaluation scale 0-5): 4 (mortality of at least 70% and less than 90%)
[18]
  G: water foxtail, herbicidal effect (evaluation scale 0-5): 5 (mortality of 90% or above (nearly complete death))
[19]
  F: wild oat, herbicidal effect (evaluation scale 0-5): 0 (mortality of less than 5% (almost ineffective))
[20]
  H: Italian ryegrass, herbicidal effect: 4 (mortality of at least 70% and less than 90%)
[21]
  A: barnyardgrass, herbicidal effect: 4 (mortality of at least 70% and less than 90%)
[22]
  O: beadstraw, herbicidal effect: 4 (mortality of at least 70% and less than 90%)
[23]
  N: common chickweed, herbicidal effect: 3 (mortality of at least 40% and less than 70%)
[24]
  L: common lambsquater, herbicidal effect: 0 (mortality of less than 5% (almost ineffective))
[25]
  J: common ragweed, herbicidal effect: 3 (mortality of at least 40% and less than 70%)
[26]
  E: giant foxtail, herbicidal effect: 4 (mortality of at least 70% and less than 90%)
[27]
  D: large crabgrass, herbicidal effect: 4 (mortality of at least 70% and less than 90%)
[28]
  M: posumbu knotweed, herbicidal effect: 3 (mortality of at least 40% and less than 70%)
[29]
  K: redroot pigweed, herbicidal effect: 1 (mortality of at least 5% and less than 20%)
[30]
  I: velvetleaf, herbicidal effect: 3 (mortality of at least 40% and less than 70%)
[31]
  G: water foxtail, herbicidal effect: 5 (mortality of 90% or above (nearly complete death))
[32]
  F: wild oat, herbicidal effect: 0 (mortality of less than 5% (almost ineffective))
